Measurements as given in ChEMBL document CHEMBL4619709, “Synthesis and in-vitro anti-cancer evaluations of multi-methoxylated asymmetrical diarylpentanoids as intrinsic apoptosis inducer against colorectal cancer” (Bioorg Med Chem Lett, 2020).
The source made the active and inactive calls. The calls are words filed in the database; no cut-off is given here.

Experiments:
RKO [1] = test: Induction of apoptosis in human RKO cells assessed as increase in bad protein expression after 24 to 72 hrs by Western blot analysis; type: functional, cell-based
LoVo [2] = test: Antiproliferative activity against human LoVo cells at 10 uM after 72 hrs by MTT assay; type: functional, cell-based
T84 [3] = test: Antiproliferative activity against human T84 cells assessed as reduction in cell viability after 72 hrs by MTT assay; type: functional, cell-based; conditions: T84, 72 h
RKO [4] = test: Induction of apoptosis in human RKO cells after 24 to 72 hrs by Annexin V-FITC/PI staining based flow cytometry; type: functional, cell-based
RKO [5] = test: Induction of cell cycle arrest in human RKO cells assessed as accumulation at G0/G1 phase at 2.5 uM after 24 hrs by PI-staining based flow cytometry (reference value: 52%); type: functional
RKO [6] = test: Induction of cell cycle arrest in human RKO cells assessed as accumulation at G2/M phase at 2.5 uM after 24 hrs by PI-staining based flow cytometry (reference value: 20%); type: functional
[7] = Therapeutic index, ratio of IC50 for human NHDF cells to IC50 for human RKO cells after 72 hrs; type: toxicity; conditions: NHDF cells versus RKO cells, read-out: Ratio IC50
RKO [8] = test: Induction of cell cycle arrest in human RKO cells assessed as accumulation at S phase at 1.25 uM after 24 hrs by PI-staining based flow cytometry (reference value: 28%); type: functional
[9] = Therapeutic index, ratio of IC50 for human NHDF cells to IC50 for human T84 cells after 72 hrs; type: toxicity; conditions: NHDF cells versus T84 cells, read-out: Ratio IC50
RKO [10] = test: Induction of apoptosis in human RKO cells assessed as increase in bax protein expression after 24 to 72 hrs by Western blot analysis; type: functional, cell-based
RKO [11] = test: Antiproliferative activity against human RKO cells assessed as reduction in cell viability after 72 hrs by MTT assay; type: functional, cell-based
RKO [12] = test: Induction of cell cycle arrest in human RKO cells assessed as accumulation at S phase at 0.625 uM after 24 hrs by PI-staining based flow cytometry (reference value: 28%); type: functional
HT-29 [13] = test: Antiproliferative activity against human HT-29 cells assessed as reduction in cell viability after 72 hrs by MTT assay; type: functional, cell-based; conditions: HT-29, 72 h
NCI-H508 [14] = test: Antiproliferative activity against human NCI-H508 cells at 10 uM after 72 hrs by MTT assay; type: functional, cell-based
NCI-H508 [15] = test: Antiproliferative activity against human NCI-H508 cells assessed as reduction in cell viability after 72 hrs by MTT assay; type: functional, cell-based; conditions: NCI-H508, 72 h
LoVo [16] = test: Antiproliferative activity against human LoVo cells assessed as reduction in cell viability after 72 hrs by MTT assay; type: functional, cell-based
RKO [17] = test: Induction of apoptosis in human RKO cells assessed as reduction in bcl-2 expression after 24 hrs by Western blot analysis; type: functional, cell-based
RKO [18] = test: Induction of cell cycle arrest in human RKO cells assessed as accumulation at S phase at 2.5 uM after 24 hrs by PI-staining based flow cytometry (reference value: 28%); type: functional
RKO [19] = test: Induction of ROS generation in human RKO cells by fluorescence based assay; type: functional, cell-based
[20] = Therapeutic index, ratio of IC50 for human NHDF cells to IC50 for human HT-29 cells after 72 hrs; type: toxicity; conditions: NHDF cells versus HT-29 cells, read-out: Ratio IC50
RKO [21] = test: Induction of cell cycle arrest in human RKO cells assessed as accumulation at G0/G1 phase at 1.25 uM after 24 hrs by PI-staining based flow cytometry (reference value: 52%); type: functional
RKO [22] = test: Inhibition of colony formation in human RKO cells at 1.25 to 5 uM after 9 days by crystal violet staining based assay; type: functional, cell-based
SW-620 [23] = test: Antiproliferative activity against human SW620 cells at 10 uM after 72 hrs by MTT assay; type: functional, cell-based
RKO [24] = test: Induction of apoptosis in human RKO cells assessed as reduction in bcl-xl expression after 72 hrs by Western blot analysis; type: functional, cell-based
RKO [25] = test: Induction of cell cycle arrest in human RKO cells assessed as accumulation at G0/G1 phase at 0.625 uM after 24 hrs by PI-staining based flow cytometry (reference value: 52%); type: functional
RKO [26] = test: Induction of apoptosis in human RKO cells assessed as increase in caspase-9 expression after 24 to 72 hrs by Western blot analysis; type: functional, cell-based
RKO [27] = test: Induction of apoptosis in human RKO cells at 0.625 to 5 uM after by Annexin V-FITC/PI staining based flow cytometry; type: functional, cell-based; conditions: TDE = time-dependent effect
RKO [28] = test: Inhibition of colony formation in human RKO cells after 9 days by crystal violet staining based assay; type: functional, cell-based
RKO [29] = test: Induction of cell cycle arrest in human RKO cells assessed as accumulation at G2/M phase at 0.625 uM after 24 hrs by PI-staining based flow cytometry (reference value: 20%); type: functional
SW-620 [30] = test: Antiproliferative activity against human SW620 cells assessed as reduction in cell viability after 72 hrs by MTT assay; type: functional, cell-based; conditions: SW-620, 72 h
RKO [31] = test: Induction of apoptosis in human RKO cells assessed as reduction in procaspase-9 expression after 24 to 72 hrs by Western blot analysis; type: functional, cell-based
[32] = Therapeutic index, ratio of IC50 for human NHDF cells to IC50 for human NCI-H508 cells after 72 hrs; type: toxicity; conditions: NHDF cells versus NCI-H508 cells, read-out: Ratio IC50
RKO [33] = test: Induction of apoptosis in human RKO cells assessed as reduction in bcl-xl expression after 24 hrs by Western blot analysis; type: functional, cell-based
[34] = Therapeutic index, ratio of IC50 for human NHDF cells to IC50 for human SW620 cells after 72 hrs; type: toxicity; conditions: NHDF cells versus SW620 cells, read-out: Ratio IC50
RKO [35] = test: Antiproliferative activity against human RKO cells at 10 uM after 72 hrs by MTT assay; type: functional, cell-based
T84 [36] = test: Antiproliferative activity against human T84 cells at 10 uM after 72 hrs by MTT assay; type: functional, cell-based
HT-29 [37] = test: Antiproliferative activity against human HT-29 cells at 10 uM after 72 hrs by MTT assay; type: functional, cell-based
NHDF = test: Cytotoxicity against human NHDF cells assessed as reduction in cell viability; type: cell-based
RKO [38] = test: Induction of apoptosis in human RKO cells assessed as reduction in procaspase-3 expression after 24 to 72 hrs by Western blot analysis; type: functional, cell-based
RKO [39] = test: Induction of cell cycle arrest in human RKO cells assessed as accumulation at G2/M phase at 1.25 uM after 24 hrs by PI-staining based flow cytometry (reference value: 20%); type: functional
[40] = Therapeutic index, ratio of IC50 for human NHDF cells to IC50 for human LoVo cells after 72 hrs; type: toxicity; conditions: NHDF cells versus LoVo cells, read-out: Ratio IC50
RKO [41] = test: Inhibition of colony formation in human RKO cells at 0.625 uM treated for 9 days by crystal violet staining based assay; type: functional, cell-based
RKO [42] = test: Induction of apoptosis in human RKO cells assessed as reduction in procaspase-7 expression after 24 to 72 hrs by Western blot analysis; type: functional, cell-based

In the case of COc1cc(/C=C2\CCC/C(=C\c3ccc(O)c(Cl)c3)C2=O)cc(OC)c1OC, the Activity (RKO [1]) is reported as “Active”, the Activity (LoVo [2]) is reported as “Active” and the IC50 (T84 [3]) is reported as 1800 nM. For the same compound, the Activity (RKO [4]) was “Dose-dependent effect”, the Activity (RKO [5]) was 27% and the Activity (RKO [6]) was 50%. For the same compound, the selectivity ratio at 72 h [7] was 1.8 to 9.9, the Activity (RKO [8]) was 20% and the selectivity ratio at 72 h [9] was 1.8 to 9.9. For the same compound, the Activity (RKO [10]) was “Active”, the IC50 (RKO [11]) was 700 nM and the Activity (RKO [12]) was 27%. The IC50 (HT-29 [13]) was 3400 nM, the Activity (NCI-H508 [14]) was “Active” and the IC50 (NCI-H508 [15]) was 4000 nM. The IC50 (LoVo [16]) was 1100 nM, the Activity (RKO [17]) was “Active” and the Activity (RKO [18]) was 23%. For the same compound, the Activity (RKO [19]) was “Dose-dependent effect”, the selectivity ratio at 72 h [20] was 1.8 to 9.9 and the Activity (RKO [21]) was 52%. The inhibition (RKO [22]) was “Active”, the Activity (SW-620 [23]) was “Active” and the Activity (RKO [24]) was “inactive”. The Activity (RKO [25]) was 52%, the Activity (RKO [26]) was “Active” and the Activity (RKO [27]) was “Tde”. The inhibition (RKO [28]) was “Dose-dependent effect”, the Activity (RKO [29]) was 21% and the IC50 (SW-620 [30]) was 800 nM. The Activity (RKO [31]) was “Active”, the selectivity ratio at 72 h [32] was 1.8 to 9.9 and the Activity (RKO [33]) was “Active”. The selectivity ratio at 72 h [34] was 1.8 to 9.9, the Activity (RKO [35]) was “Active” and the Activity (T84 [36]) was “Active”. The Activity (HT-29 [37]) was “Active”, the IC50 (NHDF) was 6900 nM and the Activity (RKO [38]) was “Active”. For the same compound, the Activity (RKO [39]) was 28%, the selectivity ratio at 72 h [40] was 1.8 to 9.9 and the inhibition (RKO [41]) was “inactive”. The Activity (RKO [42]) was “Active”.
